Experimental data taken from ChEMBL document CHEMBL4813942, “Hydrated Rubrolides from the New Zealand Tunicate Synoicum kuranui” (2021).
Values after ≈ are worked out from the molar mass of the structure shown. Active and inactive are the calls of the source. The rule behind the calls is not given here.

Columns and labels:
[1] = test system: Staphylococcus aureus; experiment: Antibacterial activity against methicillin-sensitive Staphylococcus aureus ATCC 25923 assessed as bacterial growth inhibition measured after 16 hrs by serial dilution method; type: functional
[2] = test system: Bacillus subtilis; experiment: Antibacterial activity against Bacillus subtilis 168 assessed as bacterial growth inhibition measured after 16 hrs by serial dilution method; type: functional; details: subsp. subtilis str. 168
[3] = test system: Staphylococcus aureus; experiment: Antibacterial activity against methicillin-resistant Staphylococcus aureus ATCC 43300 assessed as bacterial growth inhibition measured after 16 hrs by serial dilution method; type: functional
[4] = test system: HCT-116; experiment: Cytotoxicity against human HCT-116 cells assessed as reduction in cell growth at 0.06 to 30 uM measured after 48 hrs by MTS assay; type: functional, cell-based; details: dose 0.06-30 µM
[5] = test system: HCT-116; experiment: Cytotoxicity against human HCT-116 cells assessed as reduction in cell growth at 12.8 uM measured after 48 hrs by MTS assay; type: functional, cell-based

Row | Structure (SMILES) | MIC [1] | MIC [2] | MIC [3] | Activity [4] | Activity [5]
1 | CN(C)[C@@H]1C(O)=C(C(N)=O)C(=O)[C@@]2(O)C(O)=C3C(=O)c4c(O)cccc4[C@@](C)(O)[C@H]3C[C@@H]12 [TETRACYCLINE] | < 0.25 µg/mL | 2 µg/mL (≈ 4.5 µM) | < 0.25 µg/mL | – | –
2 | O=C1C=C(c2cc(Br)c(O)c(Br)c2)C(O)(Cc2cc(Br)c(O)c(Br)c2)O1 (centres undefined) | 32 µg/mL (≈ 52.1 µM) | 32 µg/mL (≈ 52.1 µM) | 16 µg/mL (≈ 26.1 µM) | inactive | –
3 | O=C1C=C(c2cc(Br)c(O)c(Br)c2)C(O)(Cc2ccc(O)c(Br)c2)O1 (centres undefined) | > 128 µg/mL | > 128 µg/mL | > 128 µg/mL | – | Active
4 | O=C1OC(O)(Cc2ccc(O)cc2)C(c2cc(Br)c(O)c(Br)c2)=C1Cl (centres undefined) | 128 µg/mL (≈ 261 µM) | 128 µg/mL (≈ 261 µM) | 128 µg/mL (≈ 261 µM) | inactive | –
5 | O=C1C=C(c2cc(Br)c(O)c(Br)c2)/C(=C/c2cc(Br)c(O)c(Br)c2)O1 [RUBROLIDE A] | 8 µg/mL (≈ 13.4 µM) | 2 µg/mL (≈ 3.36 µM) | 2 µg/mL (≈ 3.36 µM) | inactive | –
